The target of this test is T1, B1R of the rat (Rattus norvegicus, UniProt P97583).
T1 construct: expressed in transfected cells; host or cells: CHO K1 cells (Chinese hamster ovary), stably transfected
T1 sequence (P97583 1-337): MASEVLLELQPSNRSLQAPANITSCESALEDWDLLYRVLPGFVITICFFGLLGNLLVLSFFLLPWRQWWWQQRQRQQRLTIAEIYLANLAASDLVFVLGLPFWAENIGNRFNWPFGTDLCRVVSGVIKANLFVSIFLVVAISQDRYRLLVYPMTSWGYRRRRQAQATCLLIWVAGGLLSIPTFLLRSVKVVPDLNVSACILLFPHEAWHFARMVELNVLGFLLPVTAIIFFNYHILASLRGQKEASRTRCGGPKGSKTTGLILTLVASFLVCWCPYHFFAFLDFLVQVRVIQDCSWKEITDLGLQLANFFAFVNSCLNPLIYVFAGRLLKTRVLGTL
The test is described as follows: FLIPR Ca2+ functional assay, B1R antagonism, rat B1R in CHO K1 cells. The format is cell-based. The conditions noted are these: test substance 10 μM; rB1R CHO K1 cells; agonist Des-Arg9 bradykinin at EC80; % of maximum achievable inhibition. The procedure:
The agonistic or antagonistic action of substances on the bradykinin 1 receptor (B1R) of the human and rat species can be quantified with ectopically expressing cell lines (CHO K1 cells) and with the aid of a Ca^2+-sensitive dye (Fluo-4) using a fluorescent imaging plate reader (FLIPR). The value in % activation is based on the Ca^2+ signal after addition of Lys-Des-Arg^9 bradykinin (0.5 nM) or Des-Arg^9 bradykinin (100 nM). Antagonists lead to a suppression of the Ca^2+ influx following administration of the agonist. The % inhibition in comparison with the maximum achievable inhibition is indicated.
1. Functional Investigation on the Bradykinin 1 Receptor (B1R) The agonistic or antagonistic action of substances can be determined on the bradykinin 1 receptor (B1R) of the human and rat species with the following assay. According to this assay, the Ca^2+ inflow through the channel is quantified with the aid of a Ca^2+-sensitive dye (Fluo-4 type, Molecular Probes Europe BV, Leiden, Netherlands) in a fluorescent imaging plate reader (FLIPR, Molecular Devices, Sunnyvale, USA). 2. Method: Chinese hamster ovary cells (CHO K1 cells) which are stably transfected with the human B1R gene (hB1R cells) or the B1R gene of the rat (rB1R cells) are used. For functional investigations these cells are plated-out onto black 96-well plates with a clear base (BD Biosciences, Heidelberg, Germany or Greiner, Frickenhausen, Germany) in a density of 20,000-35,000 cells/well. Overnight the cells are incubated at 37° C. and 5% CO2 in culture medium (hB1R cells: Ham's Nutrient Mixture F12, Gibco Invitrogen GmbH, Karlsruhe, Germany or DMEM, Sigma-Aldrich, Taufkirchen, Germany; rB1R cells: D-MEM/F12, Gibco Invitrogen, Karlsruhe, Germany) with 10 vol. % FBS (foetal bovine serum, Gibco Invitrogen GmbH, Karlsruhe, Germany or PAN Biotech GmbH, Aidenbach, Germany).
On the following day the cells are loaded with 2.13 μM Fluo-4 (Molecular Probes Europe BV, Leiden, Netherlands) in HBSS buffer (Hank's buffered saline solution, Gibco Invitrogen GmbH, Karlsruhe, Germany) with 2.5 mM probenecid (Sigma-Aldrich, Taufkirchen, Germany) and 10 mM HEPES (Sigma-Aldrich, Taufkirchen, Germany) for 60 min at 37° C. The plates are subsequently washed twice with HBSS buffer, and HBSS buffer which additionally contains 0.1% BSA (bovine serum albumin; Sigma-Aldrich, Taufkirchen, Germany), 5.6 mM glucose and 0.05% gelatine (Merck KGaA, Darmstadt, Germany) is added. After a further incubation of 20 minutes at RT, the plates are inserted into the FLIPR for Ca^2+ measurement. Alternatively they are washed with buffer A (15 mM HEPES, 80 mM NaCl, 5 mM KCl, 1.2 mM CaCl2, 0.7 mM MgSO4, 2 g/l glucose, 2.5 mM probenecid) and loaded with buffer A with added 2.5 μM Fluo-4 and 0.025% Pluronic F127 (Sigma-Aldrich, Taufkirchen, Germany). The cells are then washed twice with buffer A and incubated for 30 minutes with buffer A, which additionally contains 0.05% BSA and 0.05% gelatine, at RT and then used for Ca^2+ measurement in the FLIPR. The Ca^2+-dependent fluorescence is measured here before and after addition of substances (λex=488 nm, λem=540 nm). The quantification is performed by measuring the highest fluorescence intensity (FC, fluorescence counts) over time.
The FLIPR protocol comprises two additions of substance. Test substances (10 μM) are first pipetted onto the cells and the Ca^2+ inflow is compared with the control (hB1R: Lys-Des-Arg^9 bradykinin >=50 nM; rB1R: Des-Arg^9 bradykinin 10 μM). The value in % activation based on the Ca^2+ signal after addition of Lys-Des-Arg^9 bradykinin (>=50 nM) or Des-Arg^9 bradykinin (10 μM) is obtained therefrom. After incubation for 10-20 minutes, Lys-Des-Arg^9 bradykinin (hB1R) or Des-Arg^9 bradykinin (rB1R) is applied in the EC80 concentration and the inflow of Ca^2+ is likewise determined.
Antagonists lead to a suppression of the Ca^2+ inflow. The % inhibition in comparison with the maximum achievable inhibition is calculated. […]

The text below walks through data of US8158628B2, “Sulfonylated 1,2,3,4-tetrahydropyrrolo[1,2-a]pyrazine compounds and their use as pharmaceuticals” (Gruenenthal GmbH, priority 2009, dated 2012).

Molecules are shown by their SMILES.

Regarding `O=C(CC1c2cccn2CCN1S(=O)(=O)c1ccccc1)N1CCC(N2CCCC2)CC1` (stereo not shown) [Example 175, 2-[2-(Benzenesulfonyl)-1,2,3,4-tetrahydro-pyrrolo[1,2-a]pyrazin-1-yl]-1-(4-pyrrolidin-1-yl-piperidin-1-yl)-ethanone], the inhibition at 10 µM amounted to 9.54%. The result for `O=C(CC1c2cccn2CCN1S(=O)(=O)c1ccccc1)N1CCC(N2CCOCC2)CC1` (stereo not shown) [Example 176, 2-[2-(Benzenesulfonyl)-1,2,3,4-tetrahydro-pyrrolo[1,2-a]pyrazin-1-yl]-1-(4-morpholin-4-yl-piperidin-1-yl)-ethanone] reads 26.7%; that for `CN1CCN(C2CCN(C(=O)CC3c4cccn4CCN3S(=O)(=O)c3ccccc3)CC2)CC1` (stereo not shown) [Example 177, 2-[2-(Benzenesulfonyl)-1,2,3,4-tetrahydro-pyrrolo[1,2-a]pyrazin-1-yl]-1-[4-(4-methyl-piperazin-1-yl)-piperidin-1-yl]-ethanone], -1.9%; that for `Cc1ccc(C)n1CCN1CCN(C(=O)CC2c3cccn3CCN2S(=O)(=O)c2ccccc2)CC1` (stereo not shown) [Example 178, 2-[2-(Benzenesulfonyl)-1,2,3,4-tetrahydro-pyrrolo[1,2-a]pyrazin-1-yl]-1-[4-[2-(2,5-dimethyl-1H-pyrrol-1-yl)-ethyl]-piperazin-1-yl]-ethanone], 17.2%. Regarding `O=C(CC1c2cccn2CCN1S(=O)(=O)c1ccccc1)N1CCN(c2ncccn2)CC1` (stereo not shown) [Example 179, 2-[2-(Benzenesulfonyl)-1,2,3,4-tetrahydro-pyrrolo[1,2-a]pyrazin-1-yl]-1-(4-pyrimidin-2-yl-piperazin-1-yl)-ethanone], the inhibition at 10 µM amounted to 20.8%. As for `Cc1ccc2[nH]c(C3CCN(C(=O)CC4c5cccn5CCN4S(=O)(=O)c4ccccc4)CC3)nc2c1` (stereo not shown) [Example 180, 2-[2-(Benzenesulfonyl)-1,2,3,4-tetrahydro-pyrrolo[1,2-a]pyrazin-1-yl]-1-[4-(5-methyl-1H-benzoimidazol-2-yl)-piperidin-1-yl]-ethanone], the inhibition at 10 µM came to 32.9%. The result for `N#Cc1cccnc1N1CCCN(C(=O)CC2c3cccn3CCN2S(=O)(=O)c2ccccc2)CC1` (stereo not shown) [Example 181, 2-[4-[2-[2-(Benzenesulfonyl)-1,2,3,4-tetrahydro-pyrrolo[1,2-a]pyrazin-1-yl]-acetyl]-[1,4]diazepan-1-yl]-pyridine-3-carbonitrile] reads 33.9%. As for `O=C(CC1c2cccn2CCN1S(=O)(=O)c1ccccc1)NCC1CCN(Cc2ccccc2)C1` (stereo not shown) [Example 182, 2-[2-(Benzenesulfonyl)-1,2,3,4-tetrahydro-pyrrolo[1,2-a]pyrazin-1-yl]-N-[(1-benzyl-pyrrolidin-3-yl)-methyl]-acetamide], the inhibition at 10 µM worked out at 37.5%. The result for `O=C(CC1c2cccn2CCN1S(=O)(=O)c1ccccc1)N1CCN(c2ccc(C(F)(F)F)cn2)CC1` (stereo not shown) [Example 183, 2-[2-(Benzenesulfonyl)-1,2,3,4-tetrahydro-pyrrolo[1,2-a]pyrazin-1-yl]-1-[4-[5-(trifluoromethyl)-pyridin-2-yl]-piperazin-1-yl]-ethanone] reads 56.1%. On to `CC1CCCC(C)N1CCCNC(=O)CC1c2cccn2CCN1S(=O)(=O)c1cccc(C(F)(F)F)c1` (stereo not shown) [Example 184, N-[3-(2,6-Dimethyl-piperidin-1-yl)-propyl]-2-[2-[[3-(trifluoromethyl)phenyl]sulfonyl]-1,2,3,4-tetrahydro-pyrrolo[1,2-a]pyrazin-1-yl]-acetamide], for which the inhibition at 10 µM came to 19.4%. Consider `CN1CCN(CC(NC(=O)CC2c3cccn3CCN2S(=O)(=O)c2cccc(C(F)(F)F)c2)c2ccccc2)CC1` (stereo not shown) [Example 185, N-[2-(4-Methyl-piperazin-1-yl)-1-phenyl-ethyl]-2-[2-[[3-(trifluoromethyl)phenyl]sulfonyl]-1,2,3,4-tetrahydro-pyrrolo[1,2-a]pyrazin-1-yl]-acetamide], for which the inhibition at 10 µM was 76.4%. The value for `O=C(CC1c2cccn2CCN1S(=O)(=O)c1cccc(C(F)(F)F)c1)N1CCN(c2ccccc2F)CC1` (stereo not shown) [Example 186, 1-[4-(2-Fluorophenyl)-piperazin-1-yl]-2-[2-[[3-(trifluoromethyl)phenyl]sulfonyl]-1,2,3,4-tetrahydro-pyrrolo[1,2-a]pyrazin-1-yl]-ethanone] was 24.4%. The value for `CCN1CCN(C(=O)CC2c3cccn3CCN2S(=O)(=O)c2cccc(C(F)(F)F)c2)CC1` (stereo not shown) [Example 187, 1-(4-Ethyl-piperazin-1-yl)-2-[2-[[3-(trifluoromethyl)phenyl]sulfonyl]-1,2,3,4-tetrahydro-pyrrolo[1,2-a]pyrazin-1-yl]-ethanone] was 18.3%. Take `O=C(CC1c2cccn2CCN1S(=O)(=O)c1cccc(C(F)(F)F)c1)N1CCC(N2CCCCC2)CC1` (stereo not shown) [Example 188, 1-(4-Piperidin-1-yl-piperidin-1-yl)-2-[2-[[3-(trifluoromethyl)phenyl]sulfonyl]-1,2,3,4-tetrahydro-pyrrolo[1,2-a]pyrazin-1-yl]-ethanone]: the inhibition at 10 µM was -2.25%.

For the compound `Cc1ccc2[nH]c(C3CCN(C(=O)CC4c5cccn5CCN4S(=O)(=O)c4cccc(C(F)(F)F)c4)CC3)nc2c1` (stereo not shown) [Example 189, 1-[4-(5-Methyl-1H-benzoimidazol-2-yl)-piperidin-1-yl]-2-[2-[[3-(trifluoromethyl)phenyl]sulfonyl]-1,2,3,4-tetrahydro-pyrrolo[1,2-a]pyrazin-1-yl]-ethanone], the inhibition at 10 µM is -1.61%.

As for `O=C(CC1c2cccn2CCN1S(=O)(=O)c1cccc(C(F)(F)F)c1)N1CCN(c2ccccn2)CC1` (stereo not shown) [Example 190, 1-(4-Pyridin-2-yl-piperazin-1-yl)-2-[2-[[3-(trifluoromethyl)phenyl]sulfonyl]-1,2,3,4-tetrahydro-pyrrolo[1,2-a]pyrazin-1-yl]-ethanone], the inhibition at 10 µM worked out at 20.4%. The value for `Cc1cc(S(=O)(=O)N2CCn3cccc3C2CC(=O)N(C)C(CN2CCN(C)CC2)c2ccccc2)c(C)cc1Cl` (stereo not shown) [Example 230, 2-[2-[(4-Chloro-2,5-dimethyl-phenyl)sulfonyl]-1,2,3,4-tetrahydro-pyrrolo[1,2-a]pyrazin-1-yl]-N-methyl-N-[2-(4-methyl-piperazin-1-yl)-1-phenyl-ethyl]-acetamide] was 5.28%; that for `O=C(CC1c2cccn2CCN1S(=O)(=O)c1ccccc1)N1CCN(c2ccc(Cl)c(Cl)c2)CC1` (stereo not shown) [Example 231, 2-[2-(Benzenesulfonyl)-1,2,3,4-tetrahydro-pyrrolo[1,2-a]pyrazin-1-yl]-1-[4-(3,4-dichlorophenyl)-piperazin-1-yl]-ethanone] was -0.67%; that for `Cc1ccc(CN2CCN(C(=O)CC3c4cccn4CCN3S(=O)(=O)c3ccccc3)CC2)cc1` (stereo not shown) [Example 232, 2-[2-(Benzenesulfonyl)-1,2,3,4-tetrahydro-pyrrolo[1,2-a]pyrazin-1-yl]-1-[4-(p-tolyl-methyl)-piperazin-1-yl]-ethanone] was 2.94%.
